Experimental data from patent US4980377A, “1-(aminophenyl)-2-aminopropanone derivatives” (Laboratoire L. Lafon, priority 1984, dated 1990).
“Also recorded” adds a separate entry of the source. Counter-ions that a name gives are not always drawn.

What was measured:
[1] = Acute toxicity by intraperitoneal administration; type: in vivo, mouse; settings: mouse, in vivo, ip; male mice
Method: (§1) In the neuropsychopharmacological study which follows, a solution of CRL 41 153 in distilled water (pH 1.5) was administered intraperitoneally in a volume of 20 ml/kg to male mice and 5 ml/kg to male rats.

male mice = assay: Acute toxicity by intraperitoneal administration; type: in vivo, mouse; settings: i.p.
Method: as §1

mice [2] = assay: Overall behavior and reactivities in mice; type: in vivo, mouse; settings: i.p.
Method: as §1
(§2) Groups of three animals are observed before and then 0.25 hour, 0.50 hour, 1 hour, 2 hours, 3 hours and 24 hours after the administration of CRL 41 153.

rats [3] = assay: Overall behavior and reactivities in rats; type: in vivo, rat; settings: for Observed symptoms: i.p.
Method: as §1, §2

mice [4] = assay: Interaction with apomorphine in mice; type: in vivo, mouse; settings: gastric, apomorphine 16 mg/kg s.c.
Method: Groups of 6 mice receive CRL 41 153 0.5 hour before the subcutaneous injection of 1 or 16 mg/kg of apomorphine.

mice [5] = assay: Spontaneous motility; type: in vivo, mouse; settings: gastric
Method: 0.5 hour after they have received CRL 41 153, the mice (6 per dose, 12 control animals) are placed in an actimeter, where their motility is recorded for 30 minutes.

mice [6] = assay: Interaction with barbital; type: in vivo, mouse; settings: gastric
Method: Half an hour after the administration of CRL 41 153, groups of 10 mice receive an intraperitoneal injection of barbital (220 mg/kg).

rats [7] = assay: Investigation of stereotype movements; type: in vivo, rat; settings: i.p., compared with amphetamine 2 mg/kg, hydrochloride
Method: Immediately after the intraperitoneal administration of CRL 41 194 or amphetamine, groups of 6 rats are placed in Plexiglass boxes (20×10×10 cm). The stereotype movements are graded from 0 to 3 every 10 minutes until they wear off.
Groups of 6 rats receive an intraperitoneal injection of CRL 41 213, distilled water or amphetamine immediately before being placed in small cages, where their stereotype behavior is graded every 10 minutes until the effect wears off.

[8] = Particular toxicity in grouped mice; settings: mouse, ip
Method: (§3) The number of dead animals is noted after 1 hour, 2 hours, 3 hours, 4 hours and 24 hours.

mice [9] = assay: Particular toxicity in grouped mice; settings: mice
Method: as §3

dogs = assay: Cardiovascular study in anesthetized dogs; type: in vivo, dog
Summary of the method: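 Measurements: blood pressure, heart rate, femoral and vertebral arterial flow, rectal temperature, skin colour, and for CRL 41 194 bile colour via bile-duct catheter. Doses rose stepwise 0.1–10 mg/kg intraduodenally in solution under nembutal anaesthesia; two dogs got CRL 41 194, four CRL 41 221.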

[10] = tested on: cellular and humoral immunity; assay: Test for cells forming lysis areas; settings: in vivo
[11] = tested on: cellular and humoral immunity; assay: Delayed hypersensitivity to the red blood corpuscles of sheep; type: in vivo
man = assay: Clinical study: treatment of depressions; type: in vivo, human
humans = assay: Clinical study: vasodilator; type: in vivo, human
Excerpt: In the treatment of diseases associated with the blood circulation through the vessels.

[12] = tested on: gravid White New Zealand female rabbits; assay: Teratogenicity in gravid White New Zealand rabbits; type: in vivo, rabbit; settings: day 5 to day 18 of gestation; for Affected foetuses, %: normal limit 1.5%
Summary of the method: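 Fetuses harvested by cesarean on gestation day 29 were scored for number and for any malformation (limb blockade, anury, tail or skull defects, exencephaly).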

[13] = pH of solutions in distilled water; type: physicochemical; settings: administered solution in distilled water, concentration not given
Method: The neuropsychopharmacological study was undertaken according to the procedures described above for CRL 41 153, CRL 41 213 being adminstered intraperitoneally, in solution in distilled water, in a volume of 20 ml/kg to male mice and a volume of 5 ml/kg to male rats, and the pH of the injected solution varying with the concentration of CRL 41 213 according to the data given in Table II below.

CNS = assay: Neuropsychopharmacological profile as a whole; type: in vivo, mice and rats; settings: conclusion of the tests
Method: as §1

immunity = assay: Immunological study (overall); settings: in vivo; hydrochloride
[14] = anesthetized dogs, intraduodenal
[15] = dogs, after product, isoprenaline 10 μg/kg
[16] = dogs, after product, norepinephrine 2 μg/kg

Compound: CC(C)NC(C)C(=O)c1cc(Cl)c(N)c(Cl)c1 (centres unmarked) [CRL 41 194, 1-(4-amino-3,5-dichlorophenyl)-2-isopropylaminopropanone hydrochloride]
- LD50 [1]: 86 mg/kg
- LD0 (maximum non-lethal dose) (male mice): greater than 32 mg/kg
- Observed symptoms (mice [2]; 0.25 mg/kg): weak excitation 24 hours after administration
- Observed symptoms (mice [2]; 1 mg/kg): weak excitation 24 hours after administration
- Observed symptoms (mice [2]; 4 mg/kg): weak excitation and an increase in the reactivity to touch about 24 hours after administration
- Observed symptoms (mice [2]; 16 mg/kg, hydrochloride): weak excitation 24 hours after administration; also recorded: an increase in the reactivity to touch for 24 hours; also recorded: dyspnea for 3 hours; also recorded: mydriasis for 2 hours (at a maximum 1 hour after administration); also recorded: dilation of the caudal veins for 2 hours
- Stereotype movements (summary) (rats [3]; dose not stated): stereotype movements (of moderate intensity)
- Observed symptoms (rats [3]; 0.125 mg/kg): mydriasis for 2 hours (at a maximum 0.5 hour after administration)
- Observed symptoms (rats [3]; 0.5 mg/kg): dyspnea for 0.5 hour
- Observed symptoms (rats [3]; 2 mg/kg, hydrochloride): mydriasis at a maximum 0.5 hour after administration; also recorded: dyspnea for 2 hours
- Observed symptoms (rats [3]; 8 mg/kg, hydrochloride): piloerection for 1 hour; also recorded: mydriasis for 2 hours (at a maximum 0.5 hour after administration); also recorded: dyspnea for 2 hours
- Effect on hypothermia induced by apomorphine (mice [4]): as from a dose of 2 mg/kg, administered gastrically, CRL 41 194 opposes the hypothermia
- Effect on righting behavior and stereotypies induced by apomorphine (mice [4]): without modifying the righting behavior and the stereotypies
- Spontaneous motor activity (mice [5]): At the strongest dose administered gastrically (32 mg/kg), CRL 41 194 slightly reduces the spontaneous motor activity of mice
- Duration of the sleep induced by barbital (mice [6]): At the strongest dose administered gastrically (32 mg/kg), CRL 41 194 reduces the duration of the sleep induced by barbital in mice
- Stereotype movements (rats [7]): At the strongest dose used (16 mg/kg), CRL 41 194 causes the appearance of stereotype movements; also recorded: The intensity of the effect obtained with 16 mg/kg is slightly lower than that obtained with 2 mg/kg of amphetamine
- LD50 ([8]; grouped mice): 27 mg/kg
- selectivity ratio ([8]; in vivo): 3.19
- LD50 ([8]; isolated mice): 86 mg/kg
- Particular toxicity to grouped mice (mice [9]): more toxic to grouped mice than to isolated mice
- Vasodilator (conclusion) (dogs): good vasodilator
- Effect on hypertension induced by norepinephrine (dogs; anesthetized dogs): slightly reduced
- Effects of isoprenaline on the blood pressure (dogs; anesthetized dogs): reduced as regards the blood pressure
- Rectal temperature (dogs; anesthetized dogs): the rectal temperature and skin temperature rose
- Skin temperature (dogs; anesthetized dogs): the rectal temperature and skin temperature rose
- Effects of isoprenaline on the heart rate (dogs; anesthetized dogs, after accumulated dose of 19.1 mg/kg intraduodenal): not modified as regards the heart rate
- Blood pressure (dogs; [14]): A drop in the diastolic blood pressure is observed at 5 mg/kg
- Differential blood pressure (dogs; [14]): an increase in the differential blood pressure as from the smallest doses
- Femoral flow (dogs; [14]): At 0.5 mg/kg, the femoral flow increases
- Heart rate (dogs; [14]): At 0.5 mg/kg, the femoral flow increases at the same time as the heart rate
- Respiration (dogs; [14]): Both dogs received respiratory stimulation
- Vertebral flow (dogs; [14]): increases the vertebral flow as from a dose of 0.1 mg/kg
- Diastolic blood pressure after isoprenaline (dogs; [15]): 64 mm Hg
- Diastolic blood pressure before isoprenaline (dogs; [15]): 126 mm Hg
- Heart rate after isoprenaline (dogs; [15]): 262 beats/minute
- Systolic blood pressure after norepinephrine (dogs; [16]): 266 mm Hg
- Systolic blood pressure before norepinephrine (dogs; [16]): 208 mm Hg
- Activity in the test for cells forming lysis areas [10]: active on the cellular and humoral immunity
- Activity on the delayed hypersensitivity reaction [11]: active on the cellular and humoral immunity
- Result in the treatment of depressions (man): excellent results on man in the treatment of depressions at a dose of 3×5 mg per day
- Vasodilator in human clinical use (humans): very active as a vasodilator
- Affected foetuses, number ([12]; 5 mg/kg daily): 1
- Total foetuses (live) ([12]; 5 mg/kg daily): 95
- Affected foetuses, % ([12]; 5 mg/kg daily): 1.10%
- Affected foetuses, number ([12]; 10 mg/kg daily): 0
- Total foetuses (live) ([12]; 10 mg/kg daily): 91
- Affected foetuses, % ([12]; 10 mg/kg daily): 0%
- pH [13]: 4.5
- Antidepressant effects (overall) (CNS): is an antidepressant
- Immunological effect (overall) (immunity): immunostimulant or immunomodulating effects; also recorded: beneficial immunological properties; also recorded: behaves as an immunomodulating agent
